Laboratory results reported in patent publication EP4707280A1, “1,4-CINEOLE DERIVATIVE AND INTERMEDIATE THEREOF, HERBICIDE CONTAINING SAID DERIVATIVE AS ACTIVE INGREDIENT, METHOD FOR USING HERBICIDE, AND METHOD FOR PREPARING AGROCHEMICAL COMPOSITION” (HOKKO CHEMICAL INDUSTRY CO., LTD., priority 2023, dated 2024).

Tests used:
Assay type in all cases: in vivo
[1] = system: Echinochloa crus-galli var. formosensis; experiment: Test Example 1: herbicidal effect test by soil application in paddy rice; conditions: Echinochloa crus-galli, soil, 336 h; 120 g active ingredient per 10 ares; applied immediately after sowing, flooded pots; 14 days after application; read-out: weed inhibition rate
In short: (§1)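 Flooded-pot paddy assay: sow at 0–1 cm, flood to about 3 cm, then apply diluted emulsifiable concentrate by dropper, 120 g a.i. per 10 ares; greenhouse-grown.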

Scirpus juncoides [2] = experiment: as above; conditions: Schoenoplectiella juncoides, soil, 336 h; 120 g active ingredient per 10 ares; applied immediately after sowing, flooded pots; 14 days after application; read-out: weed inhibition rate
In short: as §1

Echinochloa crus-galli [3] = experiment: Test Example 4: herbicidal effect test by stem and leaf treatment in upland field; conditions: Echinochloa crus-galli; 120 g per 10 ares; sprayed seven days after sowing, upland soil; 14 days after application; read-out: weed inhibition rate
[4] = system: Echinochloa crus-galli var. formosensis; experiment: Test Example 5: herbicidal effect test by soil application in paddy rice (low dose); conditions: Echinochloa crus-galli, soil, 336 h; 7.5 g per 10 ares; applied immediately after sowing, flooded pots; 14 days after application; read-out: weed inhibition rate
In short: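 Pre-emergence paddy test: seeds sown 0–1 cm (30 each), pots flooded ~3 cm, greenhouse. EC dilution dropped into water right after sowing, 7.5 g a.i./10 a. Duplicate pots; weed inhibition rate (%) by formula, day 14.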

[5] = system: Echinochloa crus-galli var. formosensis; experiment: Test Example 6: herbicidal effect test by application during growth period of paddy rice (low dose); conditions: Echinochloa crus-galli; 7.5 g per 10 ares; applied seven days after sowing, flooded pots; 14 days after application; read-out: weed inhibition rate
In short: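 Puddled, fertilised paddy soil was sown with 30 seeds per species and flooded to about 3 cm. After 7 days in a glass greenhouse, the diluted emulsifiable concentrate went into the water by dropper at 7.5 g/10 a. Effect scored at 14 days.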

Digitaria ciliaris [6] = experiment: Test Example 4: herbicidal effect test by stem and leaf treatment in upland field; conditions: Digitaria ciliaris; 120 g per 10 ares; sprayed seven days after sowing, upland soil; 14 days after application; read-out: weed inhibition rate
Digitaria ciliaris [7] = experiment: Test Example 7: herbicidal effect test by soil application in upland field (low dose); conditions: Digitaria ciliaris, 7.5 g per 10 ares, sprayed one day after sowing, 14 days after application, read-out: weed inhibition rate
Protocol: (§2) The present test was conducted in duplicate for each chemical concentration group, and the weed inhibition rate (%) was determined 14 days after chemical application using the following formula (Math. 1). [formula]
(§3) Pots with an area of 36 cm^2 were filled with upland soil (alluvial loam), twenty seeds each of weeds of Digitaria ciliaris, and Echinochloa crus-galli were uniformly mixed with the top 1 cm layer of soil and the surface was lightly pressed down. One day after sowing, an emulsifiable concentrate prepared according to Formulation Example 5 using the compound shown below was diluted with water, and the diluted solution was sprayed onto the soil surface at a rate of 100 liters per 10 ares. The amount of the active ingredient to be applied was equivalent to 7.5 g per 10 ares. Fourteen days after chemical application, the herbicidal effect was evaluated according to the same criteria as in Test Example 1.

Echinochloa crus-galli [8] = experiment: as above; conditions: Echinochloa crus-galli, 7.5 g per 10 ares, sprayed one day after sowing, 14 days after application, read-out: weed inhibition rate
Protocol: as §2, §3

[9] = system: Echinochloa crus-galli var. formosensis; experiment: Test Example 2: herbicidal effect test by application during growth period of paddy rice; conditions: Echinochloa crus-galli; 120 g per 10 ares; applied seven days after sowing, flooded pots; 14 days after application; read-out: weed inhibition rate
In short: (§4)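 Flooded paddy pot test, greenhouse. Seeds 30/species, 0–1 cm depth, water ~3 cm. EC diluted in water, dropper-applied 7 d post-sowing at 120 g a.i./10 a. Inhibition rate (%) read 14 d after treatment; n=2.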

Scirpus juncoides [10] = experiment: as above; conditions: Schoenoplectiella juncoides; 120 g per 10 ares; applied seven days after sowing, flooded pots; 14 days after application; read-out: weed inhibition rate
In short: as §4

Digitaria ciliaris [11] = experiment: Test Example 3: herbicidal effect test by soil application in upland field; conditions: Digitaria ciliaris, 120 g per 10 ares, sprayed one day after sowing, 14 days after application, read-out: weed inhibition rate
In short: (§5)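 Weed inhibition (%) was assessed 14 days after treatment, in duplicate per concentration group. Seeds had been mixed into the upper 1 cm of upland alluvial loam, and the soil surface was sprayed one day later with the diluted emulsifiable concentrate at 120 g active ingredient per 10 ares.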

Echinochloa crus-galli [12] = experiment: as above; conditions: Echinochloa crus-galli, 120 g per 10 ares, sprayed one day after sowing, 14 days after application, read-out: weed inhibition rate
In short: as §5

Digitaria ciliaris [13] = experiment: Test Example 8: herbicidal effect test by stem and leaf treatment in upland field (low dose); conditions: Digitaria ciliaris; 7.5 g per 10 ares; sprayed seven days after sowing, upland soil; 14 days after application; read-out: weed inhibition rate
Protocol: as §2
as §3, with “Seven days” for “One day”

Echinochloa crus-galli [14] = experiment: as above; conditions: Echinochloa crus-galli; 7.5 g per 10 ares; sprayed seven days after sowing, upland soil; 14 days after application; read-out: weed inhibition rate
Protocol: as §2
as §3, with “Seven days” for “One day”

CC(C)[C@]12CC(OCc3ccccc3)[C@](C)(C[C@@H]1Cl)O2 (mixture of isomers) [1-8, (1R,2S,4S,SR)-5-benzyloxy-2-chloro-1-isopropyl-4-methyl-7-oxabicyclo[2.2.1]heptane]
≥ 80%: pest or weed control at 1200 g/ha [1] | pest or weed control at 1200 g/ha (Scirpus juncoides [2]) | inhibition at 1200 g/ha (Echinochloa crus-galli [3]) | inhibition at 75 g/ha [4] | inhibition at 75 g/ha [5] | inhibition at 1200 g/ha (Digitaria ciliaris [6]) | inhibition at 75 g/ha (Digitaria ciliaris [7]) | inhibition at 75 g/ha (Echinochloa crus-galli [8]) | inhibition at 1200 g/ha [9] | inhibition at 1200 g/ha (Scirpus juncoides [10]) | inhibition at 1200 g/ha (Digitaria ciliaris [11]) | inhibition at 1200 g/ha (Echinochloa crus-galli [12]) | inhibition at 75 g/ha (Digitaria ciliaris [13]) | inhibition at 75 g/ha (Echinochloa crus-galli [14])

CC(C)[C@]12CC(OCc3c(Cl)cccc3Cl)[C@](C)(C[C@@H]1I)O2 (mixture of isomers) [1-779, (1R,2S,4S,SR)-5-[(2,6-dichlorophenyl)methoxy]-2-iodo-1-isopropyl-4-methyl-7-oxabicyclo[2.2.1]heptane]
≥ 80%: pest or weed control at 1200 g/ha [1] | pest or weed control at 1200 g/ha (Scirpus juncoides [2]) | inhibition at 1200 g/ha (Echinochloa crus-galli [3]) | inhibition at 75 g/ha [4] | inhibition at 75 g/ha [5] | inhibition at 1200 g/ha (Digitaria ciliaris [6]) | inhibition at 75 g/ha (Digitaria ciliaris [7]) | inhibition at 75 g/ha (Echinochloa crus-galli [8]) | inhibition at 1200 g/ha [9] | inhibition at 1200 g/ha (Scirpus juncoides [10]) | inhibition at 1200 g/ha (Digitaria ciliaris [11]) | inhibition at 1200 g/ha (Echinochloa crus-galli [12]) | inhibition at 75 g/ha (Digitaria ciliaris [13]) | inhibition at 75 g/ha (Echinochloa crus-galli [14])

CC(C)C12CC(OCc3ccccc3Br)C(C)(CC1Br)O2 (stereo not shown) [1-1361, 5-bromo-2-[(2-bromophenyl)methoxy]-1-methyl-4-isopropyl-7-oxabicyclo[2.2.1]heptane]
≥ 80%: pest or weed control at 1200 g/ha [1] | inhibition at 1200 g/ha (Echinochloa crus-galli [3]) | inhibition at 75 g/ha [4] | inhibition at 75 g/ha [5] | inhibition at 1200 g/ha (Digitaria ciliaris [6]) | inhibition at 75 g/ha (Digitaria ciliaris [7]) | inhibition at 75 g/ha (Echinochloa crus-galli [8]) | inhibition at 1200 g/ha [9] | inhibition at 1200 g/ha (Digitaria ciliaris [11]) | inhibition at 1200 g/ha (Echinochloa crus-galli [12]) | inhibition at 75 g/ha (Digitaria ciliaris [13]) | inhibition at 75 g/ha (Echinochloa crus-galli [14])

CC(C)C12CC(OCc3c(F)cccc3F)C(C)(CC1Br)O2 (stereo not shown) [1-1379, 5-bromo-2-[(2,6-difluorophenyl)methoxy]-1-methyl-4-isopropyl-7-oxabicyclo[2.2.1]heptane]
≥ 80%: pest or weed control at 1200 g/ha [1] | inhibition at 1200 g/ha (Echinochloa crus-galli [3]) | inhibition at 75 g/ha [4] | inhibition at 75 g/ha [5] | inhibition at 1200 g/ha (Digitaria ciliaris [6]) | inhibition at 75 g/ha (Digitaria ciliaris [7]) | inhibition at 75 g/ha (Echinochloa crus-galli [8]) | inhibition at 1200 g/ha [9] | inhibition at 1200 g/ha (Digitaria ciliaris [11]) | inhibition at 1200 g/ha (Echinochloa crus-galli [12]) | inhibition at 75 g/ha (Digitaria ciliaris [13]) | inhibition at 75 g/ha (Echinochloa crus-galli [14])

CC(C)C12CC(OCc3c(F)cccc3Cl)C(C)(CC1Br)O2 (stereo not shown) [1-1381, 5-bromo-2-[(2-chloro-6-fluorophenyl)methoxy]-1-methyl-4-isopropyl-7-oxabicyclo[2.2.1]heptane]
≥ 80%: pest or weed control at 1200 g/ha [1] | inhibition at 1200 g/ha (Echinochloa crus-galli [3]) | inhibition at 75 g/ha [4] | inhibition at 75 g/ha [5] | inhibition at 1200 g/ha (Digitaria ciliaris [6]) | inhibition at 75 g/ha (Digitaria ciliaris [7]) | inhibition at 75 g/ha (Echinochloa crus-galli [8]) | inhibition at 1200 g/ha [9] | inhibition at 1200 g/ha (Digitaria ciliaris [11]) | inhibition at 1200 g/ha (Echinochloa crus-galli [12]) | inhibition at 75 g/ha (Digitaria ciliaris [13]) | inhibition at 75 g/ha (Echinochloa crus-galli [14])

CC(C)C12CC(OCc3ccccc3I)C(C)(CC1I)O2 (stereo not shown) [1-1430, 2-iodo-5-[(2-iodophenyl)methoxy]-1-isopropyl-4-methyl-7-oxabicyclo[2.2.1]heptane]
≥ 80%: pest or weed control at 1200 g/ha [1] | pest or weed control at 1200 g/ha (Scirpus juncoides [2]) | inhibition at 1200 g/ha (Echinochloa crus-galli [3]) | inhibition at 75 g/ha [4] | inhibition at 75 g/ha [5] | inhibition at 75 g/ha (Digitaria ciliaris [7]) | inhibition at 75 g/ha (Echinochloa crus-galli [8]) | inhibition at 1200 g/ha [9] | inhibition at 1200 g/ha (Scirpus juncoides [10]) | inhibition at 1200 g/ha (Digitaria ciliaris [11]) | inhibition at 1200 g/ha (Echinochloa crus-galli [12]) | inhibition at 75 g/ha (Digitaria ciliaris [13]) | inhibition at 75 g/ha (Echinochloa crus-galli [14])

CC(C)[C@]12C[C@@H](OCc3ccc(F)cc3F)[C@](C)(CC1=O)O2 [2-16, (1R,4S,5R)-5-((2,4-difluorobenzyl)oxy)-1-isopropyl-4-methyl-7-oxabicyclo[2.2.1]heptan-2-one]
≥ 80%: pest or weed control at 1200 g/ha [1] | pest or weed control at 1200 g/ha (Scirpus juncoides [2]) | inhibition at 1200 g/ha (Echinochloa crus-galli [3]) | inhibition at 75 g/ha [4] | inhibition at 75 g/ha [5] | inhibition at 1200 g/ha (Digitaria ciliaris [6]) | inhibition at 75 g/ha (Digitaria ciliaris [7]) | inhibition at 75 g/ha (Echinochloa crus-galli [8]) | inhibition at 1200 g/ha [9] | inhibition at 1200 g/ha (Digitaria ciliaris [11]) | inhibition at 1200 g/ha (Echinochloa crus-galli [12]) | inhibition at 75 g/ha (Digitaria ciliaris [13]) | inhibition at 75 g/ha (Echinochloa crus-galli [14])

Cc1ccccc1COC1CC2(C(C)C)C=CC1(C)O2 (stereo not shown) [3-753, 4-methyl-5-[(2-methylphenyl)methoxy]-1-isopropyl-7-oxabicyclo[2.2.1]hept-2-ene]
≥ 80%: pest or weed control at 1200 g/ha [1] | pest or weed control at 1200 g/ha (Scirpus juncoides [2]) | inhibition at 1200 g/ha (Echinochloa crus-galli [3]) | inhibition at 75 g/ha [4] | inhibition at 75 g/ha [5] | inhibition at 75 g/ha (Digitaria ciliaris [7]) | inhibition at 75 g/ha (Echinochloa crus-galli [8]) | inhibition at 1200 g/ha [9] | inhibition at 1200 g/ha (Scirpus juncoides [10]) | inhibition at 1200 g/ha (Digitaria ciliaris [11]) | inhibition at 1200 g/ha (Echinochloa crus-galli [12]) | inhibition at 75 g/ha (Digitaria ciliaris [13]) | inhibition at 75 g/ha (Echinochloa crus-galli [14])
